Source: patent US12077503B2, “Substituted cyclic amides and their use as herbicides” (FMC CORPORATION, priority 2015, dated 2024)
Read-outs that look alike come from different tables or passages of the source.

Columns and labels:
Format in all cases: in vivo
[1] = tested on: wheat (Triticum aestivum); experiment: Test A postemergence; details: Triticum aestivum, post-emergence, 240 h, postemergence; for plant injury at 125 g/ha: 125 g ai/ha
Summary of the method: (§1)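 In a loam soil and sand blend, planted seeds got a preemergence directed soil spray, and young plants at the one- to two-leaf stage, 2–10 cm high, got a postemergence application; ~10 d greenhouse hold; injury rated visually, 0 = none, 100 = complete control.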

[2] = tested on: blackgrass (Alopecurus myosuroides); experiment: Test A postemergence; details: Alopecurus myosuroides, post-emergence, 240 h, read-out: Plant response rating, Blackgrass; for pest or weed control at 125 g/ha: 125 g ai/ha, Postemergence, visual injury after approximately 10 d, 0 to 100 scale where 0 is no effect and 100 is complete control; for pest or weed control at 500 g/ha: 500 g ai/ha, postemergence, visual injury, 0 to 100 scale (0 no effect, 100 complete control), approx. 10 d
Summary of the method: as §1

[3] = tested on: giant foxtail (Setaria faberii); experiment: Test A postemergence; details: Setaria faberi, post-emergence, 240 h, postemergence; for pest or weed control at 125 g/ha: 125 g ai/ha; for pest or weed control at 500 g/ha: 500 g ai/ha, visual injury, 0 to 100 scale (0 no effect, 100 complete control), read-out: Plant response rating, Foxtail, Giant
Summary of the method: as §1

[4] = tested on: pigweed (Amaranthus retroflexus); experiment: Test A postemergence; details: Amaranthus retroflexus, post-emergence, 240 h, postemergence; for pest or weed control at 125 g/ha: 125 g ai/ha
Summary of the method: as §1

Kochia (Kochia scoparia) = experiment: Test A postemergence; details: Bassia scoparia, post-emergence, 240 h, postemergence; for pest or weed control at 125 g/ha: 125 g ai/ha; for pest or weed control at 500 g/ha: 500 g ai/ha, visual injury, 0 to 100 scale (0 no effect, 100 complete control), read-out: Plant response rating, Kochia
Summary of the method: as §1

[5] = tested on: ryegrass, Italian (Italian ryegrass, Lolium multiflorum); experiment: Test A postemergence; details: Lolium multiflorum, post-emergence, 240 h, postemergence; for pest or weed control at 125 g/ha: 125 g ai/ha
Summary of the method: as §1

[6] = tested on: ragweed (common ragweed, Ambrosia elatior); experiment: Test A postemergence; details: Ambrosia artemisiifolia, post-emergence, 240 h, postemergence; for pest or weed control at 125 g/ha: 125 g ai/ha
Summary of the method: as §1

[7] = tested on: barnyardgrass (Echinochloa crus-galli); experiment: Test A postemergence; details: Echinochloa crus-galli, post-emergence, 240 h; for pest or weed control at 125 g/ha: 125 g ai/ha; for pest or weed control at 500 g/ha: 500 g ai/ha, visual injury, 0 to 100 scale (0 no effect, 100 complete control), approx. 10 d
Summary of the method: as §1

[8] = tested on: Galium (catchweed bedstraw, Galium aparine); experiment: Test A postemergence; details: Galium, post-emergence, 240 h, postemergence; for pest or weed control at 125 g/ha: 125 g ai/ha; for pest or weed control at 500 g/ha: 500 g ai/ha, visual injury, 0 to 100 scale (0 no effect, 100 complete control), read-out: Plant response rating, Galium
Summary of the method: as §1

corn (Zea mays) = experiment: Test A postemergence; details: Zea mays, post-emergence, 240 h; for Corn plant response rating (crop injury, 0 = no effect, 100 = complete kill) at 125 g/ha: Postemergence, visual injury after approximately 10 d, 0 to 100 scale where 0 is no effect and 100 is complete control; for Corn plant response rating (crop injury, 0 = no effect, 100 = complete kill) at 500 g/ha: 500 g ai/ha, visual injury, 0 to 100 scale (0 no effect, 100 complete control), approx. 10 d
Summary of the method: as §1

[9] = tested on: sedge, umbrella (small-flower umbrella sedge, Cyperus difformis); experiment: Test B flooded paddy test; details: Cyperus difformis, 250 g ai/ha, Flood, read-out: Sedge, Umbrella plant response rating
Summary of the method: (§2)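 Evaluation by eye, against controls, occurred 13–15 d post-treatment in a greenhouse, using a 0 (no effect) to 100 (complete control) scale. Application was into the paddy water, 3 cm deep over the soil, on 2-leaf plants.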

[10] = tested on: ducksalad (Heteranthera limosa); experiment: Test B flooded paddy test; details: Heteranthera limosa, 250 g ai/ha, Flood, read-out: Ducksalad plant response rating
Summary of the method: as §2

rice (Oryra sativa) = experiment: Test B flooded paddy test; details: Oryza sativa, 250 g ai/ha, Flood, read-out: Rice plant response rating
Summary of the method: as §2

[11] = tested on: barnyardgrass (Echinochloa crus-galli); experiment: Test B flooded paddy test; details: Echinochloa crus-galli, 250 g ai/ha, Flood, read-out: Barnyardgrass plant response rating
Summary of the method: as §2

[12] = tested on: barnyardgrass (Echinochloa crus-galli); experiment: Test A preemergence; details: Echinochloa crus-galli, pre-emergence, 240 h; for pest or weed control at 125 g/ha: 125 g ai/ha; for pest or weed control at 500 g/ha: 500 g ai/ha
Summary of the method: as §1

[13] = visual injury on 0 to 100 scale (0 no effect, 100 complete control), approx. 10 d, read-out: Wheat plant response rating
[14] = visual injury on 0 to 100 scale (0 no effect, 100 complete control), approx. 10 d, read-out: Foxtail, Giant plant response rating
[15] = visual injury on 0 to 100 scale (0 no effect, 100 complete control), approx. 10 d, read-out: Pigweed plant response rating
[16] = visual injury on 0 to 100 scale (0 no effect, 100 complete control), approx. 10 d, read-out: Kochia plant response rating
[17] = visual injury on 0 to 100 scale (0 no effect, 100 complete control), approx. 10 d, read-out: Ryegrass, Italian plant response rating
[18] = visual injury on 0 to 100 scale (0 no effect, 100 complete control), approx. 10 d, read-out: Ragweed plant response rating
[19] = Postemergence, visual injury after approximately 10 d, 0 to 100 scale where 0 is no effect and 100 is complete control, read-out: Plant response rating, Barnyardgrass
[20] = postemergence, read-out: Plant response rating, Barnyardgrass
[21] = visual injury on 0 to 100 scale (0 no effect, 100 complete control), approx. 10 d, read-out: Galium plant response rating
[22] = 0 to 100 scale where 0 is no effect and 100 is complete control
[23] = Preemergence, visual injury rating after approximately 10 d, read-out: Barnyardgrass plant response rating (0 to 100 scale, 0 is no effect, 100 is complete control)
[24] = preemergence, visual injury rating about 10 d after treatment, 0 to 100 scale (0 no effect, 100 complete control), read-out: Barnyardgrass plant response rating
[25] = scale of 0 to 100 where 0 is no effect and 100 is complete control

## Cc1cc([C@H]2CNC(=O)[C@@H]2C(=O)Nc2cccc(F)c2F)ccc1C(F)(F)F [Compound 1040]
[1]; [13]
  plant injury at 125 g/ha: 20%
[2]
  pest or weed control at 125 g/ha: 60%
  pest or weed control at 500 g/ha: 70%
[3]; [14]
  pest or weed control at 125 g/ha: 80%
[3]; approx. 10 d
  pest or weed control at 500 g/ha: 90%
[4]; [15]
  pest or weed control at 125 g/ha: 40%
Kochia (Kochia scoparia); [16]
  pest or weed control at 125 g/ha: 60%
Kochia (Kochia scoparia); approx. 10 d
  pest or weed control at 500 g/ha: 70%
[5]; [17]
  pest or weed control at 125 g/ha: 30%
[6]; [18]
  pest or weed control at 125 g/ha: 0%
[7]; [19]
  pest or weed control at 125 g/ha: 80%
[7]; [20]
  pest or weed control at 500 g/ha: 90%
[8]; [21]
  pest or weed control at 125 g/ha: 50%
[8]; approx. 10 d
  pest or weed control at 500 g/ha: 70%
Corn (Zea mays); 125 g ai/ha
  Corn plant response rating (crop injury, 0 = no effect, 100 = complete kill) at 125 g/ha: 60%
Corn (Zea mays); postemergence
  Corn plant response rating (crop injury, 0 = no effect, 100 = complete kill) at 500 g/ha: 80%
[9]; [22]
  pest or weed control at 250 g/ha: 0%
[10]; [22]
  pest or weed control at 250 g/ha: 75%
Rice (Oryra sativa); [22]
  pest or weed control at 250 g/ha: 0%
[11]; [22]
  pest or weed control at 250 g/ha: 60%
[12]; [23]
  pest or weed control at 125 g/ha: 90%
[12]; [24]
  pest or weed control at 500 g/ha: 90%

## CSc1ccccc1NC(=O)[C@H]1C(=O)NC[C@@H]1c1ccc(C)c(C)c1 [Compound 1036]
[1]; [13]
  plant injury at 125 g/ha: 0%
[1]; 500 g ai/ha, visual injury, 0 to 100 scale (0 no effect, 100 complete control), approx. 10 d, read-out: Plant response rating, Wheat
  plant injury at 500 g/ha: 20%
[2]
  pest or weed control at 125 g/ha: 0%
  pest or weed control at 500 g/ha: 0%
[3]; [14]
  pest or weed control at 125 g/ha: 0%
[3]; approx. 10 d
  pest or weed control at 500 g/ha: 60%
[4]; [15]
  pest or weed control at 125 g/ha: 0%
[4]; 500 g ai/ha, visual injury, 0 to 100 scale (0 no effect, 100 complete control), approx. 10 d, read-out: Plant response rating, Pigweed
  pest or weed control at 500 g/ha: 0%
Kochia (Kochia scoparia); [16]
  pest or weed control at 125 g/ha: 0%
Kochia (Kochia scoparia); approx. 10 d
  pest or weed control at 500 g/ha: 0%
[5]; [17]
  pest or weed control at 125 g/ha: 0%
[5]; 500 g ai/ha, visual injury, 0 to 100 scale (0 no effect, 100 complete control), approx. 10 d, read-out: Plant response rating, Ryegrass, Italian
  pest or weed control at 500 g/ha: 60%
[6]; [18]
  pest or weed control at 125 g/ha: 0%
[6]; 500 g ai/ha, visual injury, 0 to 100 scale (0 no effect, 100 complete control), approx. 10 d, read-out: Plant response rating, Ragweed
  pest or weed control at 500 g/ha: 10%
[7]; [19]
  pest or weed control at 125 g/ha: 70%
[7]; [20]
  pest or weed control at 500 g/ha: 90%
[8]; [21]
  pest or weed control at 125 g/ha: 20%
[8]; approx. 10 d
  pest or weed control at 500 g/ha: 30%
Corn (Zea mays); 125 g ai/ha
  Corn plant response rating (crop injury, 0 = no effect, 100 = complete kill) at 125 g/ha: 0%
Corn (Zea mays); postemergence
  Corn plant response rating (crop injury, 0 = no effect, 100 = complete kill) at 500 g/ha: 20%
[12]; [23]
  pest or weed control at 125 g/ha: 90%
[12]; [24]
  pest or weed control at 500 g/ha: 90%

## CS(=O)(=O)c1ccccc1NC(=O)[C@H]1C(=O)NC[C@@H]1c1cc(F)c(C(F)(F)F)c(F)c1 [Compound 839]
[1]; visual injury rating after approximately 10 d, read-out: Wheat plant response rating (0 to 100 scale, 0 no effect, 100 complete control)
  plant injury at 125 g/ha: 50%
[3]; visual injury rating after approximately 10 d, read-out: Foxtail, Giant plant response rating (0 to 100 scale, 0 no effect, 100 complete control)
  pest or weed control at 125 g/ha: 60%
[4]; visual injury rating after approximately 10 d, read-out: Pigweed plant response rating (0 to 100 scale, 0 no effect, 100 complete control)
  pest or weed control at 125 g/ha: 80%
Kochia (Kochia scoparia); visual injury rating after approximately 10 d, read-out: Kochia plant response rating (0 to 100 scale, 0 no effect, 100 complete control)
  pest or weed control at 125 g/ha: 70%
[5]; visual injury rating after approximately 10 d, read-out: Ryegrass, Italian plant response rating (0 to 100 scale, 0 no effect, 100 complete control)
  pest or weed control at 125 g/ha: 50%
[6]; visual injury rating after approximately 10 d, read-out: Ragweed plant response rating (0 to 100 scale, 0 no effect, 100 complete control)
  pest or weed control at 125 g/ha: 60%
[7]; postemergence, visual injury rating after approximately 10 d, read-out: Barnyardgrass plant response rating (0 to 100 scale, 0 no effect, 100 complete control)
  pest or weed control at 125 g/ha: 60%
[8]; visual injury rating after approximately 10 d, read-out: Galium plant response rating (0 to 100 scale, 0 no effect, 100 complete control)
  pest or weed control at 125 g/ha: 80%
Corn (Zea mays); 125 g ai/ha, postemergence, visual injury rating after approximately 10 d, read-out: Corn plant response rating (0 to 100 scale, 0 no effect, 100 complete control)
  plant injury at 125 g/ha: 30%
[9]; [25]
  pest or weed control at 250 g/ha: 0%
[10]; [25]
  pest or weed control at 250 g/ha: 70%
Rice (Oryra sativa); [25]
  pest or weed control at 250 g/ha: 0%
[11]; [25]
  pest or weed control at 250 g/ha: 0%
[12]; preemergence, 0 to 100 scale where 0 is no effect and 100 is complete control, read-out: Barnyardgrass plant response rating
  pest or weed control at 125 g/ha: 80%
[12]; Preemergence, visual injury vs untreated controls after approximately 10 d, read-out: Barnyardgrass plant response rating (0 to 100 scale where 0 is no effect and 100 is complete control)
  pest or weed control at 500 g/ha: 90%
